How the values were obtained:
[1] = test system: HFD-fed rats injected with streptozotocin (STZ) to induce type 2 diabetes (T2DM); assay: Study 3 (BVISIV Study): HFD plus STZ type 2 diabetes rats, 200 mg/kg/day; assay type: in vivo
[2] = has been reported; model of accelerated aging; cited from earlier work

O=C[C@H](O)[C@@H](O)[C@@H](O)[C@H](O)CO [BVISIV 5, Galactose]
reduction of serum ALT levels ([1]; HFD/T2DM rats): effective
reduction of serum LDL cholesterol levels ([1]; HFD/T2DM rats): effective
reduction of serum triglyceride levels ([1]; HFD/T2DM rats): effective
aging effect (cognitive and motor skills) [2]: deterioration of cognitive and motor skills

O=C[C@H](O)[C@@H](O)[C@@H](O)[C@H](O)C(=O)O [BVISIV 4, Galacturonic Acid]
lowering of glucose serum levels vs Group 2 ([1]; end of 6 weeks): most effective

O=C[C@@H](O)[C@H](O)[C@H](O)CO [BVISIV 6, Arabinose]
comparative performance among formulations (triglycerides, LDL cholesterol, ALT) ([1]; HFD/T2DM rats): did not perform as well as the other formulations

Reference: patent US20180256616A1, “Compounds, Compositions and Methods for Prevention or Treatment of Liver and Lipid-Related Conditions” (Sivanaray, Inc., priority 2015, published 2018)
